Measured values published in ChEMBL document CHEMBL2413072, “Synthesis and in vitro anticancer studies of novel C-2 arylidene congeners of lantadenes” (2013).

What was measured:
Type in all cases: functional
[1] = tested on: COLO 205; assay: Growth inhibition of human COLO205 cells assessed as growth inhibition at 10 uM by sulforhodamine B assay; settings: read-out: GI
[2] = tested on: 786-0; assay: Growth inhibition of human 786-0 cells assessed as growth inhibition at 10 uM by sulforhodamine B assay; settings: read-out: GI
[3] = tested on: SNB-75; assay: Growth inhibition of human SNB75 cells assessed as cell growth at 10 uM by sulforhodamine B assay; settings: read-out: Activity
[4] = tested on: NCI-H460; assay: Growth inhibition of human NCI-H460 cells assessed as growth inhibition at 10 uM by sulforhodamine B assay; settings: read-out: GI
[5] = Growth inhibition of human NCI-ADR-RES cells assessed as growth inhibition at 10 uM by sulforhodamine B assay; settings: read-out: GI
[6] = tested on: MDA-MB-435; assay: Growth inhibition of human MDA-MB-435 cells assessed as growth inhibition at 10 uM by sulforhodamine B assay; settings: read-out: GI
[7] = tested on: NCI-H23; assay: Growth inhibition of human NCI-H23 cells assessed as cell growth at 10 uM by sulforhodamine B assay; settings: read-out: Activity
[8] = tested on: NCI-H522; assay: Growth inhibition of human NCI-H522 cells assessed as cell growth at 10 uM by sulforhodamine B assay; settings: read-out: Activity
[9] = tested on: DU-145; assay: Growth inhibition of human DU145 cells assessed as growth inhibition at 10 uM by sulforhodamine B assay; settings: read-out: GI
[10] = tested on: SK-MEL-28; assay: Growth inhibition of human SK-MEL-28 cells assessed as cell growth at 10 uM by sulforhodamine B assay; settings: read-out: Activity
[11] = tested on: HCT-15; assay: Growth inhibition of human HCT15 cells assessed as growth inhibition at 10 uM by sulforhodamine B assay; settings: read-out: GI
[12] = tested on: A498; assay: Growth inhibition of human A498 cells assessed as growth inhibition at 10 uM by sulforhodamine B assay; settings: read-out: GI
[13] = tested on: HL-60(TB); assay: Growth inhibition of human HL-60(TB) cells assessed as growth inhibition at 10 uM by sulforhodamine B assay; settings: read-out: GI
[14] = tested on: MOLT-4; assay: Growth inhibition of human MOLT4 cells assessed as growth inhibition at 10 uM by sulforhodamine B assay; settings: read-out: GI
[15] = tested on: MDA-MB-468; assay: Growth inhibition of human MDA-MB-468 cells assessed as growth inhibition at 10 uM by sulforhodamine B assay; settings: read-out: GI
[16] = tested on: HCT-15; assay: Growth inhibition of human HCT15 cells assessed as cell growth at 10 uM by sulforhodamine B assay; settings: read-out: Activity
[17] = tested on: OVCAR-3; assay: Growth inhibition of human OVCAR3 cells assessed as cell growth at 10 uM by sulforhodamine B assay; settings: read-out: Activity
[18] = tested on: M14; assay: Growth inhibition of human M14 cells assessed as cell growth at 10 uM by sulforhodamine B assay; settings: read-out: Activity
[19] = tested on: MOLT-4; assay: Growth inhibition of human MOLT4 cells assessed as cell growth at 10 uM by sulforhodamine B assay; settings: read-out: Activity
[20] = tested on: OVCAR-3; assay: Growth inhibition of human OVCAR3 cells assessed as growth inhibition at 10 uM by sulforhodamine B assay; settings: read-out: GI
[21] = tested on: HCT-116; assay: Growth inhibition of human HCT116 cells assessed as growth inhibition at 10 uM by sulforhodamine B assay; settings: read-out: GI
[22] = tested on: 786-0; assay: Growth inhibition of human 786-0 cells assessed as cell growth at 10 uM by sulforhodamine B assay; settings: read-out: Activity
[23] = tested on: SF-295; assay: Growth inhibition of human SF295 cells assessed as cell growth at 10 uM by sulforhodamine B assay; settings: read-out: Activity
[24] = tested on: U-251; assay: Growth inhibition of human U251 cells assessed as cell growth at 10 uM by sulforhodamine B assay; settings: read-out: Activity
[25] = tested on: SK-OV-3; assay: Growth inhibition of human SKOV3 cells assessed as growth inhibition at 10 uM by sulforhodamine B assay; settings: read-out: GI
[26] = tested on: SK-MEL-28; assay: Growth inhibition of human SK-MEL-28 cells assessed as growth inhibition at 10 uM by sulforhodamine B assay; settings: read-out: GI
[27] = tested on: MDA-MB-468; assay: Growth inhibition of human MDA-MB-468 cells assessed as cell growth at 10 uM by sulforhodamine B assay; settings: read-out: Activity
[28] = tested on: ACHN; assay: Growth inhibition of human ACHN cells assessed as cell growth at 10 uM by sulforhodamine B assay; settings: read-out: Activity
[29] = tested on: HT-29; assay: Growth inhibition of human HT-29 cells assessed as cell growth at 10 uM by sulforhodamine B assay; settings: read-out: Activity
[30] = tested on: OVCAR-5; assay: Growth inhibition of human OVCAR5 cells assessed as cell growth at 10 uM by sulforhodamine B assay; settings: read-out: Activity
[31] = tested on: IGROV-1; assay: Growth inhibition of human IGROV1 cells assessed as growth inhibition at 10 uM by sulforhodamine B assay; settings: read-out: GI
[32] = tested on: HOP-62; assay: Growth inhibition of human HOP62 cells assessed as cell growth at 10 uM by sulforhodamine B assay; settings: read-out: Activity
[33] = tested on: HL-60(TB); assay: Growth inhibition of human HL-60(TB) cells assessed as cell growth at 10 uM by sulforhodamine B assay; settings: read-out: Activity
[34] = Growth inhibition of human HCC2998 cells assessed as cell growth at 10 uM by sulforhodamine B assay; settings: HCC 2998, read-out: Activity
[35] = tested on: OVCAR-5; assay: Growth inhibition of human OVCAR5 cells assessed as growth inhibition at 10 uM by sulforhodamine B assay; settings: read-out: GI
[36] = tested on: NCI-H226; assay: Growth inhibition of human NCI-H226 cells assessed as growth inhibition at 10 uM by sulforhodamine B assay; settings: read-out: GI
[37] = tested on: NCI-H322M; assay: Growth inhibition of human NCI-H322M cells assessed as cell growth at 10 uM by sulforhodamine B assay; settings: read-out: Activity
[38] = tested on: SK-MEL-2; assay: Growth inhibition of human SK-MEL-2 cells assessed as cell growth at 10 uM by sulforhodamine B assay; settings: read-out: Activity
[39] = tested on: TK-10; assay: Growth inhibition of human TK10 cells assessed as growth inhibition at 10 uM by sulforhodamine B assay; settings: read-out: GI
[40] = tested on: SF-295; assay: Growth inhibition of human SF295 cells assessed as growth inhibition at 10 uM by sulforhodamine B assay; settings: read-out: GI
[41] = tested on: NCI-H322M; assay: Growth inhibition of human NCI-H322M cells assessed as growth inhibition at 10 uM by sulforhodamine B assay; settings: read-out: GI
[42] = tested on: MDA-MB-435; assay: Growth inhibition of human MDA-MB-435 cells assessed as cell growth at 10 uM by sulforhodamine B assay; settings: read-out: Activity
[43] = tested on: RPMI-8226; assay: Growth inhibition of human RPMI8226 cells assessed as growth inhibition at 10 uM by sulforhodamine B assay; settings: read-out: GI
[44] = tested on: UACC-257; assay: Growth inhibition of human UACC257 cells assessed as cell growth at 10 uM by sulforhodamine B assay; settings: read-out: Activity
[45] = tested on: UACC-62; assay: Growth inhibition of human UACC62 cells assessed as cell growth at 10 uM by sulforhodamine B assay; settings: read-out: Activity
[46] = tested on: UACC-62; assay: Growth inhibition of human UACC62 cells assessed as growth inhibition at 10 uM by sulforhodamine B assay; settings: read-out: GI
[47] = tested on: SNB-19; assay: Growth inhibition of human SNB19 cells assessed as cell growth at 10 uM by sulforhodamine B assay; settings: read-out: Activity
[48] = Growth inhibition of human EKVX cells assessed as growth inhibition at 10 uM by sulforhodamine B assay; settings: read-out: GI
[49] = tested on: NCI-H23; assay: Growth inhibition of human NCI-H23 cells assessed as growth inhibition at 10 uM by sulforhodamine B assay; settings: read-out: GI

## COc1cc(/C=C2\C[C@]3(C)[C@H]4CC=C5[C@@H]6CC(C)(C)C[C@@H](O)[C@]6(C(=O)O)CC[C@@]5(C)[C@]4(C)CC[C@H]3C(C)(C)C2=O)ccc1O
[1]
  inhibition of growth at 10 µM: < 10%
[2]
  inhibition of growth at 10 µM: < 10%
[3]
  growth at 10 µM: 82.1%
[4]
  inhibition of growth at 10 µM: < 10%
[5]
  inhibition of growth at 10 µM: < 10%
[6]
  inhibition of growth at 10 µM: < 10%
[7]
  growth at 10 µM: 85%
[8]
  growth at 10 µM: 80.8%
[9]
  inhibition of growth at 10 µM: < 10%
[10]
  growth at 10 µM: 90.6%
[11]
  inhibition of growth at 10 µM: 23.5%
[12]
  inhibition of growth at 10 µM: < 10%
[13]
  inhibition of growth at 10 µM: 28.9%
[14]
  inhibition of growth at 10 µM: 36.7%
[15]
  inhibition of growth at 10 µM: < 10%
[16]
  growth at 10 µM: 76.5%
[17]
  growth at 10 µM: 106%
[18]
  growth at 10 µM: 103%
[19]
  growth at 10 µM: 63.3%
[20]
  inhibition of growth at 10 µM: < 10%
[21]
  inhibition of growth at 10 µM: 15.2%
[22]
  growth at 10 µM: 102%
[23]
  growth at 10 µM: 76.5%
[24]
  growth at 10 µM: 84.7%
[25]
  inhibition of growth at 10 µM: < 10%
[26]
  inhibition of growth at 10 µM: < 10%
[27]
  growth at 10 µM: 103%
[28]
  growth at 10 µM: 85.6%
[29]
  growth at 10 µM: 85.5%
[30]
  growth at 10 µM: 105%
[31]
  inhibition of growth at 10 µM: < 10%
[32]
  growth at 10 µM: 96.9%
[33]
  growth at 10 µM: 71.1%
[34]
  growth at 10 µM: 95.2%
[35]
  inhibition of growth at 10 µM: < 10%
[36]
  inhibition of growth at 10 µM: < 10%
[37]
  growth at 10 µM: 97.5%
[38]
  growth at 10 µM: 100%
[39]
  inhibition of growth at 10 µM: < 10%
[40]
  inhibition of growth at 10 µM: 23.5%
[41]
  inhibition of growth at 10 µM: < 10%
[42]
  growth at 10 µM: 97.7%
[43]
  inhibition of growth at 10 µM: 40.5%
[44]
  growth at 10 µM: 91.4%
[45]
  growth at 10 µM: 75%
[46]
  inhibition of growth at 10 µM: 25%
[47]
  growth at 10 µM: 97%
[48]
  inhibition of growth at 10 µM: 11.5%
[49]
  inhibition of growth at 10 µM: 15%

## CC(C)=CC(=O)O[C@@H]1CC(C)(C)C[C@H]2C3=CC[C@@H]4[C@@]5(C)CCC(=O)C(C)(C)[C@@H]5CC[C@@]4(C)[C@]3(C)CC[C@@]12C(=O)O
[1]
  inhibition of growth at 10 µM: 29%
[2]
  inhibition of growth at 10 µM: 55.9%
[3]
  growth at 10 µM: 70%
[4]
  inhibition of growth at 10 µM: 52.9%
[5]
  inhibition of growth at 10 µM: 40%
[6]
  inhibition of growth at 10 µM: 10.4%
[7]
  growth at 10 µM: 53.4%
[8]
  growth at 10 µM: 57.3%
[9]
  inhibition of growth at 10 µM: 25.6%
[10]
  growth at 10 µM: 91.2%
[11]
  inhibition of growth at 10 µM: 81.4%
[12]
  inhibition of growth at 10 µM: < 10%
[13]
  inhibition of growth at 10 µM: 89.8%
[14]
  inhibition of growth at 10 µM: 63.5%
[15]
  inhibition of growth at 10 µM: 35.8%
[16]
  growth at 10 µM: 18.6%
[17]
  growth at 10 µM: 61.3%
[18]
  growth at 10 µM: 80.3%
[19]
  growth at 10 µM: 36.5%
[20]
  inhibition of growth at 10 µM: 38.7%
[21]
  inhibition of growth at 10 µM: 73.4%
[22]
  growth at 10 µM: 44.1%
[24]
  growth at 10 µM: 38.2%
[25]
  inhibition of growth at 10 µM: < 10%
[26]
  inhibition of growth at 10 µM: < 10%
[27]
  growth at 10 µM: 64.2%
[28]
  growth at 10 µM: 43.9%
[29]
  growth at 10 µM: 57.3%
[30]
  growth at 10 µM: 96.3%
[31]
  inhibition of growth at 10 µM: 37.7%
[32]
  growth at 10 µM: 60.2%
[33]
  growth at 10 µM: 10.2%
[34]
  growth at 10 µM: 52.8%
[35]
  inhibition of growth at 10 µM: < 10%
[36]
  inhibition of growth at 10 µM: 21.8%
[37]
  growth at 10 µM: 54%
[38]
  growth at 10 µM: 78.2%
[39]
  inhibition of growth at 10 µM: 21.9%
[41]
  inhibition of growth at 10 µM: 46%
[42]
  growth at 10 µM: 89.6%
[43]
  inhibition of growth at 10 µM: 80.4%
[44]
  growth at 10 µM: 73.9%
[45]
  growth at 10 µM: 57.8%
[46]
  inhibition of growth at 10 µM: 42.2%
[47]
  growth at 10 µM: 57.3%
[48]
  inhibition of growth at 10 µM: 58.8%
[49]
  inhibition of growth at 10 µM: 46.6%
